Assay results: US20190224347A1, “Detection of Renal Amyloidosis by Imaging with Stilbene or Phenylbenzothiazole Derivatives” (Mayo Foundation for Medical Education and Research, priority 2018, published 2019)

Target: T1, leucocyte cell-derived chemotaxin-2 (LECT2) amyloidosis (Homo sapiens, UniProt O14960)
T1 construct: biopsy-confirmed leucocyte cell-derived chemotaxin-2 (LECT2) amyloidosis underwent a positron emission tomography/computed tomography (PET/CT) scan with florbetapir; from tissue; host or cells: Living patient: amyloid deposits in lungs, spleen, adrenal glands, kidneys and bone marrow
T1 sequence (O14960 19-151): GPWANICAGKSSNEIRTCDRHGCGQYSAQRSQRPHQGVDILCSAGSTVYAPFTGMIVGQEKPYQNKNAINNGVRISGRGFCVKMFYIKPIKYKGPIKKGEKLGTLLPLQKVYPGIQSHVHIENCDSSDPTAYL
Assay: PET/CT scan with florbetapir 18F in a patient with biopsy-confirmed LECT2 amyloidosis
Type: in vivo
Protocol: Administration to the subject of a pharmaceutical composition including a radiolabeled stilbene derivative or phenylbenzothiazole derivative chosen from the compounds of Formulas (I) to (VII) above for in vivo detection of the accumulated compound in LECT2-based protein structures can be accomplished intravenously, intraarterially, intrathecally, intramuscularly, intradermally, subcutaneously, or intracavitary. Dosage can vary. In one non-limiting example, dosage may vary from 0.001 μg/kg to 10 μg/kg. In another non-limiting example, the dose for florbetapir may be 370 MBq (10 mCi), maximum 50 μg mass dose, administered as a single intravenous bolus in a total volume of 10 mL or less. The injection may be followed with an intravenous flush of 0.9% sterile sodium chloride. In the method of the invention, sufficient time is allowed after administration such that the radiolabeled stilbene derivative or phenylbenzothiazole derivative can accumulate in any LECT2-based protein structures.
A person with end stage renal disease on haemodialysis secondary to biopsy-confirmed leucocyte cell-derived chemotaxin-2 (LECT2) amyloidosis underwent a positron emission tomography/computed tomography (PET/CT) scan with florbetapir ^18F. […] These organs normally have low activity on florbetapir PET/CT. The activity pattern is consistent with pathological data on the distribution of amyloidosis in this disease. […] A remarkable finding in this patient is the uptake in the kidney because they make little urine and is on chronic haemodialysis.

## CNc1ccc(/C=C/c2ccc(OCCOCCOCC[18F])nc2)cc1 [florbetapir ^18F]
PET/CT, same patient, bone marrow
  PET/CT activity in bone marrow: diffuse intense activity above normal background
PET/CT, same patient, heart
  PET/CT activity in the heart: normal background activity
Positron emission tomography
  accumulation in LECT2-based protein structures: accumulates within LECT2-based protein structures
